According to US20240122945A1, “USE OF NEUROACTIVE STEROIDS FOR TREATMENT OF SEXUAL DYSFUNCTION” (Sage Therapeutics, Inc., priority 2021, published 2024):

Tested on: Patients With Major Depressive Disorder
Experiment: Phase 3 MOUNTAIN study: sexual functioning by Changes in Sexual Functioning Questionnaire-14 (CSFQ-14), post-hoc analysis
Format: in vivo, human
Settings: for Odds Ratio for Sexual Dysfunction (Compound (1) relative to placebo): GEE model
Protocol: Results from the multicenter, double-blind, randomized, placebo-controlled Phase 3 MOUNTAIN trial (NCT03672175) evaluating the efficacy, safety, and tolerability of 14-day treatment with 20 mg or 30 mg of Compound (1) compared with placebo (PBO) have been previously presented (Clayton, A. H. Presented at SOBP 2020 Virtual Meeting).
This analysis assessed the effect of 30 mg of Compound (1) treatment compared with PBO on sexual function, as measured by the Changes in Sexual Functioning Questionnaire-14 (CSFQ-14), in the MOUNTAIN trial.
Adult outpatients (18-65 years; n=581) with MDD (HAMD-17 total score≥22 and MADRS total score≥32) were randomized 1:1:1 to Compound (1) 20 mg (data not shown), Compound (1) 30 mg, or PBO, once-nightly for 2 weeks, with follow-up through Day 42 (see FIG. 1 for Study Design). Standard of care antidepressants that had been taken at the same dose for ≥60 days prior to Day 1 of the trial were permitted. Exclusion criteria included attempted suicide associated with the current depressive episode; treatment-resistant depression, and medical history of bipolar disorder, schizophrenia, and/or schizoaffective disorder.
Exploratory, post-hoc analyses included evaluation of sexual functioning using the 14-item; self-report CSFQ-14 at baseline, Day 15, 28, and 42.
Male and female sexual functioning was evaluated as an exploratory endpoint with the validated, 14-item, patient-reported CSFQ-14 scores at baseline, Day 15, Day 28, and Day 42. CSFQ-14 also has 5 sub-scales that measure pleasure, desire/frequency, desire/interest, arousal/excitement, and orgasm/completion, which were also evaluated. Sexual dysfunction was defined as a CSFQ-14TS of ≤41 for females and ≤47 for males. Mixed model for repeated measure and generalized estimating equation were used for analysis on patients with a baseline HAMD-17 total score≥24 (n=323).
The model used was a generalized estimating equation (GEE) for binary response model, with factors for treatment (Compound (1) 30 mg or placebo), baseline CSFQ-14 total score, antidepressant use at baseline (Yes or No), assessment time point, and time point-by-treatment interaction with exchangeable covariance structure.
Odds ratio is the estimate of the odds of having CSFQ sexual dysfunction for subjects treated with Compound (1) relative to that for subjects treated with placebo.

C[C@@]1(O)CC[C@H]2[C@H](CC[C@@H]3[C@@H]2CC[C@]2(C)[C@@H](C(=O)Cn4cc(C#N)cn4)CC[C@@H]32)C1 [Compound (1), 1-(2-((3R,5R,8R,9R,10S,13S,14S,17S)-3-hydroxy-3,13-dimethylhexadecahydro-1H-cyclopenta[a]phenanthren-17-yl)-2-oxoethyl)-1H-pyrazole-4-carbonitrile]
difference vs PBO in percentage of male patients with sexual dysfunction across individual CSFQ-14 subscales (30 mg, Days 15, 28, 42, exception: arousal/excitement at Day 42 (FIG. 5)): no significant differences | difference vs PBO in percentage of female patients with sexual dysfunction across individual CSFQ-14 subscales (30 mg, Days 15, 28, 42, exception: desire/frequency at Day 15 and orgasm/completion at Day 28 (FIG. 4)): no significant differences | difference vs PBO in percentage of patients with sexual dysfunction in the individual CSFQ-14 subscales (30 mg, all patients): no significant differences | treatment-emergent sexual dysfunction (30 mg, overall conclusion): not associated with treatment-emergent sexual dysfunction | impairment of sexual function compared to placebo during the trial (30 mg, through Day 42): No impairment of sexual function | Odds Ratio for Sexual Dysfunction (Compound (1) relative to placebo) (Day 15, Men, 30 mg, CSFQ total score<=47 = sexual dysfunction): 0.72 | Odds Ratio for Sexual Dysfunction (Compound (1) relative to placebo) (Day 15, Women, 30 mg, CSFQ total score<=41 = sexual dysfunction): 1.00 | Odds Ratio for Sexual Dysfunction (Compound (1) relative to placebo) (Day 28, Men, 30 mg, CSFQ total score<=47 = sexual dysfunction): 1.07 | Odds Ratio for Sexual Dysfunction (Compound (1) relative to placebo) (Day 28, Women, 30 mg, CSFQ total score<=41 = sexual dysfunction): 1.01 | percentage of all patients with sexual dysfunction as assessed by CSFQ-14TS thresholds (Day 42 (181/272), from 82.4% (266/323) at baseline, Compound (1) 30 mg- and PBO-treated patients together): 66.5% | Odds Ratio for Sexual Dysfunction (Compound (1) relative to placebo) (Day 42, Men, 30 mg, CSFQ total score<=47 = sexual dysfunction): 0.88 | Odds Ratio for Sexual Dysfunction (Compound (1) relative to placebo) (Day 42, Women, 30 mg, CSFQ total score<=41 = sexual dysfunction): 0.91
